These results are taken from US20240000927A1, “IMMUNOMODULATORY AGENT” (THE QUEEN'S UNIVERSITY OF BELFAST, priority 2020, published 2024).

Assay [1] has as its target T1, Toll-like receptor (TLR) 4 (Mus musculus, UniProt Q9QUK6).
T1 sequence (Q9QUK6 26-835): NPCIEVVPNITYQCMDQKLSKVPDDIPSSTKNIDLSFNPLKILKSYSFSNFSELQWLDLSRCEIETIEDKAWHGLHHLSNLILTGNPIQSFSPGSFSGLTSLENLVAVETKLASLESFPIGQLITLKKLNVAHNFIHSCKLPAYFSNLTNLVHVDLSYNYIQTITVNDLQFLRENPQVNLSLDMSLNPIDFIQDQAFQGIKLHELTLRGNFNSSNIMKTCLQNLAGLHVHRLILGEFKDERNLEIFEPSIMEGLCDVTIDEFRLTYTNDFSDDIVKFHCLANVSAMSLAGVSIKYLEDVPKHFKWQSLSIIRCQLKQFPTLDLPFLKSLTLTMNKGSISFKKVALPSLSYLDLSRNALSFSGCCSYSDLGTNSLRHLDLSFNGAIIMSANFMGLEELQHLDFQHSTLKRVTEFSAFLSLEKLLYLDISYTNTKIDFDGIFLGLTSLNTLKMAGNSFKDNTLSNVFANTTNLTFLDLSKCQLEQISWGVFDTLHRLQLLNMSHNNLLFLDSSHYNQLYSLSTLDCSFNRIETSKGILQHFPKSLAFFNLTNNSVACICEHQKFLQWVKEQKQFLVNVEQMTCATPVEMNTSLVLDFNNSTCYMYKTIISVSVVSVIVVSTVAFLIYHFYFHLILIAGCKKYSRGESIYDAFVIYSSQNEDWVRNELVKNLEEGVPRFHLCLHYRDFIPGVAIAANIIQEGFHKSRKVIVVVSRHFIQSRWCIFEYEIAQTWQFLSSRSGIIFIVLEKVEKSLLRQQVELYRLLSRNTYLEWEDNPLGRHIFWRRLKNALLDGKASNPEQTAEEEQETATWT
The settings on record: reported, Ii et al. 2006; cited from earlier work.

The subject of assay [2] is RAW 264.7 macrophages. Put plainly: Nitrite concentration (Griess reaction) in macrophage culture medium. Type of assay: cell-based, murine. The settings on record: LPS 1 ng/ml, stated to be the same as extracts at 1 mg/ml. The source says: Induction of iNOS results in the endogenous production of nitric oxide (NO) by conversion of L-arginine to citrulline (Murad 1998). NO is a key facilitator of inflammatory responses, and is only produced by macrophages activated through the classical pathway (ligation of TLRs) (Mosser 2003). Due to the highly reactive nature of NO, its formation is commonly indirectly measured (i.e. by measuring nitrite (NO2-), one of two primary stable non-volatile breakdown products of NO).
Nitrite (NO2—) concentration in culture medium was measured using the Griess reaction method, in accordance with the protocol provided by the manufacturer (Life Technologies, Paisley). […] The concentration of NO2- was measured colourimetrically at λ550 nm using a Tecan Safire2 microplate reader.
A standard solution of 0.1M sodium nitrite (NaNO2) was used to make serial dilutions in the range of 100-1 μM to quantitate NO2- concentrations by means of a standard curve.
To determine the amount of produced NO2— produced, 50 μl of medium from each well of the 96-well microtitre plate was aspirated post incubation and transferred to a fresh 96-well microtiter plate to which a solution of 50 μl sulfanilic acid 1% (10 mg/ml) in 5% phosphoric acid was added and incubated for 10 minutes at room temperature. […] The concentration of NO2— was measured colourimetrically (λ550 nm) using a Tecan Safire2 microplate reader. […]
Background: The Griess reaction detects nitrite, a stable product of nitric oxide.

For assay [3], the target named is T1, Toll-like receptor (TLR) 4. Nature of the assay: TLR 4 inhibition assay with TAK-242 (nitrite production by macrophages). More on the design: endogenous in cells; host or cells: RAW 264.7 murine macrophages. The settings on record: TAK-242 10 nM, 18 h, RAW 264.7. Type of assay: cell-based, murine. The source says:
TAK-242 is a small molecule which is a specific inhibitor of Toll-like receptor (TLR) 4, which inhibits the production of pro-inflammatory mediators by binding to Cys747 in the intracellular domain of TLR4. This prevents interactions between TLR4 and its adaptor molecules Toll/IL-1 receptor domain containing adaptor protein (TIRAP) and Toll/IL-1 receptor domain-containing adaptor protein inducing interferon-β-related adaptor molecule (TRAM). Consequently, LPS-induced signal transduction is inhibited, including downstream signalling transduction that results in the production of pro-inflammatory cytokines (Matsunaga et al. 2011). […] RAW 264.7 were prepared as described in Example 3 and subsequently seeded at a density of 1×10^5 cells/well in two 96-well microtitre plates. S. cordifolia fractions (100 l) SCAF 0 and SCAF 5 (1-0.001 mg/ml) were added in triplicate to one of the plates. The positive control was 1 ng/ml LPS and the negative control was 100 μl DMEM medium. The remaining plate was arranged in an identical manner. However, the fractions SCAF 0 and SCAF 5 and positive (LPS 1 ng/ml) and negative (medium) all contained TAK-242 at a concentration 10 nM. Plates were incubated for 18 h in an incubator at 5% CO2 at 37° C. After incubation, nitrite concentrations were determined using the Griess reagent.

On to `CCOC(=O)C1=CCCC[C@H]1S(=O)(=O)Nc1ccc(F)cc1Cl` [TAK-242], for which, in assay [1], the IC50 (in general, the concentration that inhibits the measured activity by half) is 1.1 to 11 nM. Turning to Lipopolysaccharide [LPS], the “levels of NO2−” value in assay [2] was in the range of 60 to 80 µmol/mL. The “activation of macrophages (nitrite production) in the presence of TAK-242” value in assay [3] was “inactivated”.
